Results: ChEMBL document CHEMBL3616390, “Design and synthesis of N-[6-(Substituted Aminoethylideneamino)-2-Hydroxyindan-1-yl]arylamides as selective and potent muscarinic M₁ agonists” (Bioorg Med Chem Lett, 2015)
Calls of active or inactive are those of the source. The rule behind the calls is not given here.

Legend:
[1] = target: T1, Muscarinic acetylcholine receptor M1 (Homo sapiens, UniProt P11229); assay: Agonist activity at human muscarinic M1 receptor expressed in CHO cells after 30 mins by GTPgamma35S binding assay; format: functional, cell-based
T1 sequence (P11229 whole entry): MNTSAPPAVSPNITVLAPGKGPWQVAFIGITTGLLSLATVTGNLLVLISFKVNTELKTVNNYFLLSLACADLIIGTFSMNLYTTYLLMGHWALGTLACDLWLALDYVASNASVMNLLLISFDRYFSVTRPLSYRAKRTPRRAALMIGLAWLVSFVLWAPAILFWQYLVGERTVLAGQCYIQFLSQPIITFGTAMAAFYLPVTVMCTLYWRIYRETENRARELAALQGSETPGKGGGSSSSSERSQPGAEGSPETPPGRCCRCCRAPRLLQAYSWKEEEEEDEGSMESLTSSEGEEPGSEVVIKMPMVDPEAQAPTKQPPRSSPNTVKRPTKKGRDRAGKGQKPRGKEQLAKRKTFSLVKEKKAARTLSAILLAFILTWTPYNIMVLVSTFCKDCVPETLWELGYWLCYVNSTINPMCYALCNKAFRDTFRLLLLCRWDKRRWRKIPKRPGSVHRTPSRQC

[2] = target: T2, Muscarinic acetylcholine receptor M2 (Homo sapiens, UniProt P08172); assay: Agonist activity at human muscarinic M2 receptor expressed in CHO cells after 30 mins by GTPgamma35S binding assay; format: functional, cell-based
T2 sequence (P08172 whole entry): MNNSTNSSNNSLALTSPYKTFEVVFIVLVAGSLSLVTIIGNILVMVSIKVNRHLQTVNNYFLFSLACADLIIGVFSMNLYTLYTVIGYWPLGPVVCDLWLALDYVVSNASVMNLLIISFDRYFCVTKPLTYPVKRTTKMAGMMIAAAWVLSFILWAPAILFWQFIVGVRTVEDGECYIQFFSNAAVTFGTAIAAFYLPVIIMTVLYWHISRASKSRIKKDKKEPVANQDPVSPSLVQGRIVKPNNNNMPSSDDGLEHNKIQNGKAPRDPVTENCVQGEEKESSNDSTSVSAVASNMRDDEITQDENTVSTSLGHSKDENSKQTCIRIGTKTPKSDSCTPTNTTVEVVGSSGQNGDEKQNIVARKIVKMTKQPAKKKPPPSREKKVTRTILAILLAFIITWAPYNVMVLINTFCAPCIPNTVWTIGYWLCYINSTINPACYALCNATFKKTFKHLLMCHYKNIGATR

[3] = target: T3, Muscarinic acetylcholine receptor M3 (Homo sapiens, UniProt P20309); assay: Agonist activity at human muscarinic M3 receptor expressed in CHO cells after 30 mins by GTPgamma35S binding assay; format: functional, cell-based
Target sequence in this assay (P20309 whole entry): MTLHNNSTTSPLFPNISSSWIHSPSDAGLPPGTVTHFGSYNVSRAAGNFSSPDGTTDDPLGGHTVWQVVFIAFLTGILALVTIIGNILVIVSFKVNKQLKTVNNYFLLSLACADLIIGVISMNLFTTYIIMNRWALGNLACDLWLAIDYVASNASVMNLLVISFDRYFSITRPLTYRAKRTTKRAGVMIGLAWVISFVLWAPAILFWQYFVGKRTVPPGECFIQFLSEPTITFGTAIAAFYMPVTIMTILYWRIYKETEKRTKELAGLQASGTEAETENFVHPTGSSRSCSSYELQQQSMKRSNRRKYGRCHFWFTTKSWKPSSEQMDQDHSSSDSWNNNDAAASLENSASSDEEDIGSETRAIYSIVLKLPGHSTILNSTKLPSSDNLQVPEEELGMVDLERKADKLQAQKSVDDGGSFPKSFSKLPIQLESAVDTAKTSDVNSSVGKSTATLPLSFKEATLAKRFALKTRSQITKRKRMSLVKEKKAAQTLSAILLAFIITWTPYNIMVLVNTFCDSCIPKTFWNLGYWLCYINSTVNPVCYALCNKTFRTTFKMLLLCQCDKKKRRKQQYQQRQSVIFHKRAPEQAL

[4] = target: T4, Muscarinic acetylcholine receptor M4 (Homo sapiens, UniProt P08173); assay: Agonist activity at human muscarinic M4 receptor expressed in CHO cells after 30 mins by GTPgamma35S binding assay; format: functional, cell-based
T4 sequence (P08173 whole entry): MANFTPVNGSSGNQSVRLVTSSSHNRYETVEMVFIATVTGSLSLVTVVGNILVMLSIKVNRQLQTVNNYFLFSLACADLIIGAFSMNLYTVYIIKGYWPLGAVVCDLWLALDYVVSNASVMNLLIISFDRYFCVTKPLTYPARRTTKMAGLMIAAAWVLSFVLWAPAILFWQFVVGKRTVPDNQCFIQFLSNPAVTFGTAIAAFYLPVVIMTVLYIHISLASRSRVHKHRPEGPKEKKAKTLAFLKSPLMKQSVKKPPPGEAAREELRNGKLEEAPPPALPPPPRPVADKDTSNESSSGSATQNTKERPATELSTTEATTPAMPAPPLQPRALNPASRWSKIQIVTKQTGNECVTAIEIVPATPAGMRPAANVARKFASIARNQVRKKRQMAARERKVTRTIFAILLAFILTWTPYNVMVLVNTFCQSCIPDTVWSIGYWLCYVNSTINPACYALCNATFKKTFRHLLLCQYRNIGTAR

[5] = target: T5, Muscarinic acetylcholine receptor M5 (Homo sapiens, UniProt P08912); assay: Agonist activity at human muscarinic M5 receptor expressed in CHO cells after 30 mins by GTPgamma35S binding assay; format: functional, cell-based
T5 sequence (P08912 whole entry): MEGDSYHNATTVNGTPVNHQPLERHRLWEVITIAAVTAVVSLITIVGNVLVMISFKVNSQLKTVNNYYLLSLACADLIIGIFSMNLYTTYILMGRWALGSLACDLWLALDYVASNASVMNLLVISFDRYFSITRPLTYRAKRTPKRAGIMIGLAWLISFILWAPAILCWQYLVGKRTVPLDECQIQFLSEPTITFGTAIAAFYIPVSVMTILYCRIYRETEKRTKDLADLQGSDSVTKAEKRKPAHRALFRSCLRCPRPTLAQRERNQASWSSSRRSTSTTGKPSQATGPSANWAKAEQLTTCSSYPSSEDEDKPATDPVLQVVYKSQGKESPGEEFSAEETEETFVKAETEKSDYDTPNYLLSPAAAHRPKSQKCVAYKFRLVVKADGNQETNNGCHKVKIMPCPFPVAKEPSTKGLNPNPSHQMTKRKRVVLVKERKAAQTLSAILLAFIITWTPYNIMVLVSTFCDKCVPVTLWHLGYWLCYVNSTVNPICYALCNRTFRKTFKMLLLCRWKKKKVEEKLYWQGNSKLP

[6] = Drug uptake in rat whole brain at 10 mg/kg, po measured at 3 hrs; format: ADME, organism-based; conditions: read-out: Drug uptake
Rattus norvegicus [7] = assay: AUC (0 to 8 hrs) in rat at 10 mg/kg, po; format: ADME, organism-based; design: time < 8 hr, dose 10 mg/kg, route oral; conditions: in vivo
[8] = Partition coefficient, log D of the compound; format: physicochemical; conditions: octanol/water
[9] = target: T6, Muscarinic acetylcholine receptor M1 (Homo sapiens) (UniProt P11229); assay: Agonist activity at human muscarinic M1 receptor expressed in CHO cells after 30 mins by GTPgamma35S binding assay relative to oxotremorine-M; format: functional, cell-based
T6 sequence (whole entry): T1 sequence (P11229 whole entry)

[10] = target: T7, Muscarinic acetylcholine receptor M2 (Homo sapiens) (UniProt P08172); assay: Agonist activity at human muscarinic M2 receptor expressed in CHO cells after 30 mins by GTPgamma35S binding assay relative to oxotremorine-M; format: functional, cell-based
T7 sequence (whole entry): T2 sequence (P08172 whole entry)

[11] = target: T8, Muscarinic acetylcholine receptor M4 (Homo sapiens) (UniProt P08173); assay: Agonist activity at human muscarinic M4 receptor expressed in CHO cells after 30 mins by GTPgamma35S binding assay relative to oxotremorine-M; format: functional, cell-based
T8 sequence (whole entry): T4 sequence (P08173 whole entry)

[12] = Dissociation constant, pKa of the compound; format: physicochemical
[13] = target: T7, Muscarinic acetylcholine receptor M2 (Homo sapiens); assay: Agonist activity at human muscarinic M2 receptor expressed in CHO cells after 30 mins by GTPgamma35S binding assay relative to acetylcholine; format: functional, cell-based
[14] = target: T3, Muscarinic acetylcholine receptor M3; assay: Agonist activity at human muscarinic M3 receptor expressed in CHO cells after 30 mins by GTPgamma35S binding assay relative to acetylcholine; format: functional, cell-based
Target sequence in this assay (P20309 whole entry, looked up): as the sequence (P20309 whole entry) above

[15] = target: T8, Muscarinic acetylcholine receptor M4 (Homo sapiens); assay: Agonist activity at human muscarinic M4 receptor expressed in CHO cells after 30 mins by GTPgamma35S binding assay relative to acetylcholine; format: functional, cell-based
[16] = target: T9, Muscarinic acetylcholine receptor M5 (Homo sapiens) (UniProt P08912); assay: Agonist activity at human muscarinic M5 receptor expressed in CHO cells after 30 mins by GTPgamma35S binding assay relative to acetylcholine; format: functional, cell-based
T9 sequence (whole entry): T5 sequence (P08912 whole entry)

[17] = Drug degradation in rat plasma assessed as formamidine hydrolysis after 4 hrs; format: ADME, cell-free; conditions: read-out: Drug degradation
[18] = target: T7, Muscarinic acetylcholine receptor M2 (Homo sapiens); assay: Agonist activity at human muscarinic M2 receptor expressed in CHO cells at 280 nM after 30 mins by GTPgamma35S binding assay relative to control; format: functional, cell-based
Plasma = assay: Metabolic stability in rat plasma; format: ADME, cell-free
[19] = Oral bioavailability in rat; format: ADME, organism-based; conditions: in vivo
Rattus norvegicus [20] = assay: Cognitive enhancement activity in rat at 30 mg/kg, po by spatial learning test; format: functional, organism-based
[21] = Oral bioavailability in monkey; format: ADME, organism-based, Macaca mulatta; conditions: rhesus monkey, in vivo
Rattus norvegicus [22] = assay: AUC (0 to 6 hrs) in rat at 10 mg/kg, po; format: ADME, organism-based; design: time < 6 hr, dose 10 mg/kg, route oral; conditions: in vivo
Rattus norvegicus [23] = assay: Cognitive enhancement activity in po dosed rat by 8-arm radial maze test; format: functional; conditions: read-out: MED

| Structure (SMILES) | EC50 [1] [µM] | EC50 [2] [µM] | EC50 ([3]; cho) | EC50 [4] [µM] | EC50 ([5]; cho) | concentration at 3 h [6] [ng/g] | AUC (Rattus norvegicus [7]) [ng·h/g] | Efficacy [9] [%] | Efficacy [10] [%] | Efficacy [11] [%] | pKa [12] | Efficacy [13] [%] | Efficacy [14] [%] | Efficacy [15] [%] | Efficacy [16] [%] | also measured |
| --- | --- | --- | --- | --- | --- | --- | --- | --- | --- | --- | --- | --- | --- | --- | --- | --- |
| C/C(=N\c1ccc2c(c1)[C@@H](NC(=O)c1ccc(Br)cc1)[C@H](O)C2)NCc1ccc(F)cc1 | 0.0209 | 0.0718 | Not Active | 0.115 | Not Active | 64 | 634 | 89.9 | 31.8 | 33.5 | 8.49 |  |  |  |  | logD [8]: 2.01 |
| CCn1nnc(C2=CCCN(C)C2)n1 |  |  |  |  |  |  |  |  |  |  |  | 49.2 | < 20 | < 20 | < 20 |  |
| O=C(N[C@@H]1c2cc(/N=C/N3CCCC3)ccc2C[C@H]1O)c1ccc(Br)cc1 |  |  |  |  |  |  |  |  |  |  |  |  |  |  |  | metabolised at 4 h [17]: 50%; Emax [18]: 80% |
| C#CCO[C@H]1CN2CCC1CC2 [TALSACLIDINE] | 0.82 | 0.849 |  | 0.844 |  |  |  |  |  |  |  | 94.4 | 26.1 | 22.2 | 23.7 | EC50 ([3]; read-out: EC50): 2.7 µM; EC50 ([5]; read-out: EC50): 0.422 µM |
| C/C(=N\c1ccc2c(c1)[C@@H](NC(=O)c1ccc(Br)cc1)[C@H](O)C2)N1CCCCC1 |  |  |  |  |  |  |  |  |  |  |  |  |  |  |  | metabolised at 4 h [17]: 5% |
| CO/N=C(\C#N)[C@H]1CN2CCC1CC2 [SABCOMELINE] | 0.0636 | 0.0621 |  | 0.214 |  |  |  |  |  |  |  | 87.7 | 28.3 | 21.3 | 38.9 | EC50 ([3]; read-out: EC50): 0.117 µM; EC50 ([5]; read-out: EC50): 0.123 µM |
| CC(=O)OCC[N+](C)(C)C |  |  |  |  |  |  |  |  |  |  |  |  | 117 | 93.4 | 110 |  |
| CN1CCCC/C1=N\c1ccc2c(c1)[C@@H](NC(=O)c1ccc(Br)cc1)[C@H](O)C2 | 0.08 | 0.024 |  | 0.113 |  | < 40 | 506 |  |  |  | 9.9 | 28 |  | 34 |  | Stability (Plasma): Stable; bioavailability [19]: 68%; Activity (Rattus norvegicus [20]): Active; logD [8]: 1.04 |
| C/C(=N\c1ccc2c(c1)[C@@H](NC(=O)c1ccc(Br)cc1)[C@H](O)C2)N(C)c1ccc(F)cc1 | 0.118 |  | Not Active |  | Not Active | 891 | 4681 | 31.5 | < 20 | < 20 |  |  |  |  |  |  |
| C/C(=N\c1ccc2c(c1)[C@@H](NC(=O)c1ccc(-c3ccccc3)cc1)[C@H](O)C2)N(C)Cc1ccc(F)cc1 | 0.0228 | 0.693 | Not Active | 1.06 | Not Active | 141 |  | 110 | 34.6 | 29.7 | 8.3 |  |  |  |  | bioavailability [19]: 32%; logD [8]: 2.3; bioavailability [21]: 46%; AUC (Rattus norvegicus [22]): 533 ng·h/g; minimal effective dose (Rattus norvegicus [23]): 1 mg/kg |
| C/C(=N\c1ccc2c(c1)[C@@H](NC(=O)c1ccc(Br)cc1)[C@H](O)C2)Nc1ccc(F)cc1 | 0.051 | 0.749 | Not Active | 1.11 | Not Active | 147 | 1369 | 79.4 | 25.2 | 23.1 | 8.2 |  |  |  |  |  |
| CCCCCCOc1nsnc1C1=CCCN(C)C1 |  |  |  |  |  |  |  |  |  |  |  | 83.5 | < 20 | 48.7 | 25.9 |  |
